Biological target: T1, His^B10 anion site of the R6 hexameric aspart (Homo sapiens, UniProt P01308, P52D)
T1 construct: The A-chain is a 21 amino acid peptide and the B-chain is a 30 amino acid peptide
Test: 600 MHz proton NMR of aspart/liraglutide mixtures (R6 hexamer signal of Cys A6 alpha proton at 5.6 ppm)
Type: binding
Settings: for stabilization of the aspart R6 conformation (NMR resonances between 5 and 6 ppm): ligand at 3 mM added to the aspart/liraglutide mixtures of FIG. 13, FIG. 14, 15
Procedure: Insulin Aspart (B28 Asp human insulin) and liraglutide mixtures were prepared with constant aspart concentration (0.6 mM) and increasing concentration of liraglutide (going from 0 to 2.4 mM). Mixtures are formulated at pH 7.5, 1.6% w/v d-glycerol, 0.3 mM Zn(Ac)2, 30 mM d-phenol (deuterated phenol in order to avoid any proton NMR signal). […] This region of the proton NMR signal only included signals from aspart, no signals from liraglutide were present.
Ligands for the His^B10 anion site of the R6 hexameric aspart entity will stabilize this R6 conformation. Two such ligands were tested under the same conditions as was used in the experiment depicted in FIG. 13 with the addition of ligands at 3 mM concentration.

T1 sequence (P01308 25-54 P52D): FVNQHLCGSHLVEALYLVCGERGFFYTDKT
T1 sequence (P01308 90-110): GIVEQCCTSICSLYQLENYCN

Row | SMILES | stabilization of the aspart R6 conformation (NMR resonances between 5 and 6 ppm) | tightness of binding to the Zn-binding pocket of aspart, compared (ligand at 3 mM, FIG. 15 against FIG. 14)
1 | c1ccc(Cc2nn[nH]n2)cc1 [5-Benzyl-2H-tetrazole] | stabilized the R6 conformation | 
2 | O=C1NC(=O)/C(=C/c2cccc3ccccc23)S1 [5-Naphthalen-1-ylmethylenethiazolidine-2,4-dione] | invariant aspart resonances under increasing liraglutide concentration | binds even tighter than the 5-Benzyl-2H-tetrazole

From patent publication US20080280814A1, “Pharmaceutical Compositions Containing Insulin and Insulinotropic Peptide” (Novo Nordisk A/S, priority 2004, published 2008)
